Test results as given in patent US8323704B2, “Process for preparation of extract of Decalepis hamiltonii having antioxidant activity” (Council of Scientific and Industrial Research, priority 2003, dated 2012).

Key:
[1] = Antioxidant assay using β-Carotene Linoleate model System (β CLAMS); type: biochemical; conditions: bleaching of β carotene, 180 min, 50° C.
Text: Antioxidant assay using β-Carotene Linoleate model System (β CLAMS) (Hidalgo et al., 1994)
This is one of the rapid methods to screen antioxidants, which is mainly based on principle that Linoleic acid which is an unsaturated fatty acid gets oxidized by “Reactive Oxgen Species” (ROS) produced by oxygenated water. The products formed will initiate the β-Carotene oxidation, which leads to discoloration.
Due to insolubility of β-Carotene in water, it is first made into emulsion. β-Carotene is dissolved in chloroform and using Tween-40 (Polyoxyethylene sorbotan manonitrate) as surfactant, it was mixed with Linoleic acid to form emulsion. The resulting mixture is diluted with triple distilled water (1 part) and mixed well. This emulsion is further made up with oxygenated water (4 parts) which initiates the process of oxidation immediately. It is transferred to tubes containing samples. Initial (zero min) reading is read, followed by recording the absorbance at 15 min intervals at 470 nm. All tubes were placed in water bath at 50° C. throughout the experiment.
β Carotene linoleic acid emulsion mixture—100 ml (Jayaprakash et al., 2000) […]
[…] Absorbance of all samples were taken at 470 nm at Zero time and tubes were placed at 50° C. in water bath., Measurement of Absorbance was continued at an interval of 15 minutes, till the colour of β carotene disappeared in the control reaction (t=180 min). […] Dose response of antioxidant activity for various extracts was determined at different concentrations.
The antioxidant activity (% AA) of extracts was evaluated in terms of bleaching of β Carotene using the following formula (Hidalgo et al, 1994).
Each experiment was carried out in triplicate and the deviation of absorbance value was less than 10%. % AA=100[1-(A^0-A^t)/A^00-A^0t)] […]
A^0=Zero time absorbance of sample
A^t=Absorbance of sample after incubation for 180 min
A^00=Zero time absorbance of control
A^t0=Absorbance of control after incubation for 180 min.
And results were expressed as % Antioxidant activity.

[2] = Free radical scavenging activity using D.P.P.H as stable free radical; type: biochemical; conditions: 20 minutes, 517 nm
Description: Schematic representation of chemically stable radical scavenging activity using D.P.P.H as stable free radical: (Blios, 1958)
Free radical scavenging potentials of the extracts were tested against a methanolic solution of α,α-diphenyl-β-picryl hydrazyl (D.P.P.H). Antioxidants reacts with D.P.P.H. and convert it to α,α-diphenyl-β-picryl hydrazine. The degree of discoloration indicates the scavenging potentials of the antioxidant extract. The change in the absorbance produced at 517 nm has been used as a measure of antioxidant activity.
• Methanolic solution of D.P.P.H (100 μM): 39.4 mg of D.P.P.H was dissolved in one liter of analytical grade methanol. • Preparation of the extract solutions: 55 mg of the extract was dissolved in 10 ml of methanol and filtered; the filtrate was used for the experiments. Method:
Aliquots of 0.025, 0.05, 0.1 ml of extracts and standard were taken in different test tubes. To this 5 ml of methanolic solution of D.P.P.H was added, shaken well and the mixture was allowed to stand at room temperature for 20 minutes. The blank was prepared as above without extract. […] The absorbance of blank was first noted at 517 nm. The change of absorbance of the samples was measured.
Scavenging activity was expressed as the inhibition percentage calculated using the following formula, […]

Row | Compound | % Activity ± S.D (antioxidant activity, % AA) ([1]; 100 ppm) [%] | % Activity ± S.D (antioxidant activity, % AA) ([1]; 500 ppm) [%] | % Activity ± S.D (antioxidant activity, % AA) ([1]; 1000 ppm) [%] | % Activity ± S.D (anti-radical activity, inhibition percentage) ([2]; 100 ppm) [%] | % Activity ± S.D (anti-radical activity, inhibition percentage) ([2]; 500 ppm) [%] | % Activity ± S.D (anti-radical activity, inhibition percentage) ([2]; 1000 ppm) [%]
1 | COc1ccc(O)c(C(C)(C)C)c1 [Standard BHA, butylated hydroxy anisole] | 84.3 | 88.6 | 90.1 | – | – | –
2 | α,α-diphenyl-β-picryl hydrazyl [Standard D.P.P.H] | – | – | – | 88.3 | 92.6 | 94.3
